Data published in article PMC7179685, “Iminosugars With Endoplasmic Reticulum α-Glucosidase Inhibitor Activity Inhibit ZIKV Replication and Reverse Cytopathogenicity in vitro” (Frontiers in Microbiology, 2020).

Experiments:
Vero cells = test: Cytotoxicity, MTS cell viability assay in Vero cells; assay type: cell-based, African green monkey; conditions: 72 h post treatment
Method: A cell viability assay was used to evaluate both the cytotoxicity and antiviral abilities of the iminosugars with appropriate controls as previously described ([Fletcher et al., 2000]) using the CellTiter 96® AQueous One Solution Cell Proliferation Assay (MTS, Promega, Madison, WI, United States) following the manufacturer’s instructions. At 60–70% confluence, Vero cells and CHME3 cells were pretreated with iminosugars for 2 h and then infected with ZIKV according to the plate layout shown in Supplementary Figure S1. Four biological replicates were used to assess cytotoxicity, and six replicates were used to assess the antiviral ability of each iminosugar with concentrations ranging from 0.01 to 1000 μM or vehicle (sterile nuclease-free water). Cells treated with iminosugars or vehicle control were infected with ZIKV strain PRVABC59, IBH30656 or MEX 2-81 at a multiplicity of infection (MOI) of 1 in infection medium consisting of DMEM supplemented with 5% FBS and 1% antibiotic/antimycotic solution. The CHME3 infection medium was additionally supplemented with 0.1% non-essential amino acids (NEAA). At 72 h post-infection (hpi), MTS solution was added to the wells, and after 2 h, the optical density was measured at 490 nm using a microplate reader (ELx800; BioTek, Winooski, VT, United States). Previous studies have shown that ER α-glucosidase inhibitor, Celgosivir prevents DENV secretion in primary human macrophages with an EC50 of 5 μM and has CC50 greater than 1000 μM in MBDK cells ([Whitby et al., 2004]; [Sung et al., 2016]).

CHME3 cells = test: Measurement of necrosis, LDH assay in ZIKV-infected CHME3 cells; assay type: cell-based, Human; conditions: PRVABC59, MOI 1, 72 hpi
Method: Cell necrosis was evaluated by measuring the levels of lactate dehydrogenase (LDH) in cells using the CytoTox 96 Non-Radioactive Cytotoxicity Assay (Promega) following the manufacturer’s instructions. LDH is a soluble stable cytosolic enzyme present in many cell types which is rapidly released into the cell culture medium following disruption of the plasma membrane. LDH is a widely used marker to measure cellular cytotoxicity and necrosis. CHME3 cells in 96-well cell culture plates were pre-treated with celgosivir for 2 h and then infected with PRVABC59 at MOI 1 in the presence of celgosivir at concentrations ranging from 0.01 to 1000 μM or vehicle. Controls for media color, cells, and virus were included. At 48 and 72 hpi, 50 μl of supernatant from each well was transferred into a new 96-well plate, and 50 μl of CytoTox 96® Reagent was added to each well. After incubating at room temperature in the dark, 50 μl of Stop Solution was added to each well, and the optical density was measured at 490 nm using an ELx800 microplate reader (BioTek).

[1] = tested on: MDA5, RIG-I, MX1, IRF7, IFNβ, ISG15; test: Antiviral gene expression by qRT-PCR in CHME3 cells; assay type: cell-based, Human; conditions: 1 μM
Method: CHME3 cells grown in 6-well plates and at 70% confluency were infected with PRVABC59 at MOI 1. After pre-incubation with the virus for 2 h, medium from cells was removed, cells were washed with PBS, and fresh infection medium containing 1 μM celgosivir was added. Negative control wells were added with infection medium without celgosivir. Three wells were used for each treatment. At 24, 48, and 72 h, total RNA was extracted from cells using the RNeasy Plus Minikit (Qiagen, Hilden, Germany) according to the manufacturer’s protocol. Complementary DNA was synthesized from 1 μg of total RNA using 4 μl of qScript cDNA SuperMix (5x) (QuantaBio, Beverly, MA, United States). qRT-PCR was performed on a 7500 Fast Real-Time PCR System (Applied Biosystems) using PowerSybr Green PCR MasterMix (Applied Biosystems) according to the manufacturer’s instructions. Expression of retinoic acid-inducible gene 1 (RIGI), melanoma differentiation-associated protein 5 (MDA5), interferon regulatory factor 7 (IRF7), interferon β (IFNβ), interferon-induced GTP-binding protein (MX1) and interferon-stimulated gene 15 (ISG15) were quantified, and hypoxanthine phosphoribosyltransferase 1 (HPRT1) was used as a house-keeping gene for data normalization. All primers used were previously published and were supplied by IDT ([Megiorni et al., 2005]; [Kim et al., 2008]; [Nasirudeen et al., 2011]; [Muramatsu et al., 2014]; [Seng et al., 2014]; [Liu et al., 2015]; [Livingstone et al., 2015]).

Structure (SMILES): CCCC(=O)O[C@H]1CN2CC[C@H](O)[C@@H]2[C@@H](O)[C@@H]1O [celgosivir, 6-O-butanoyl castanospermine]
- metabolic activity (cytotoxicity, MTS) (Vero cells; 1000 μM): decrease in metabolic activity
- metabolic activity compared to vehicle control (cytotoxicity, MTS) (Vero cells; 0.01 to 100 μM): No reduction in metabolic activity
- ZIKV-induced LDH activity (necrosis) (CHME3 cells): reduced PRVABC59 ZIKV-induced LDH activity to levels equivalent to mock-infected cells
- decrease of IFNβ expression levels ([1]; PRVABC59 ZIKV-infected CHME3 cells, treated vs not treated, 48 hpi, p = 0.033): 27%
- expression levels of MDA5, RIG-I, MX1, IRF7, and ISG15, treated vs vehicle-treated ([1]; PRVABC59 ZIKV-infected CHME3 cells, any timepoint (24, 48, 72 h)): not significantly different
- decrease of IFNβ gene expression ([1]; mock-infected CHME3 cells, treated vs untreated, 48 hpi, statistically significant): 22%
- level of IFNβ expression, treated vs untreated ([1]; mock-infected CHME3 cells, 72 hpi): similar
